Patent publication US20100216761A1, “NOVEL AZETIDINONES USEFUL AS INHIBITORS OF ELASTASE” (priority 2007, published 2010)

Experiments:
[1] = biological target: CYP3A4 (Homo sapiens, UniProt P08684); experiment: CYP-P450 reversible inhibition, 3A4; type: in vitro ADME; set-up: host or cells: human liver microsomes or recombinant P450 microsomes; settings: probe fluorogenic probe (not named); human liver microsomes or recombinant P450 microsomes; fluorescent probe
Description: (§1) This assay measured the reversible inhibition of the test compounds against three cytochrome P450 isozymes (CYP-P450 3A4, 2C9 and 2D6) in an automated screening formate. […] Cumene hydroperoxide, NADPH or NADPH regenerating systems can be used as electron donors for the P450 catalytic cycle. Control incubations containing no inhibitor or no fluorescent probe were performed to evaluate the 100% and 0% activities, respectively. The activity of P450 enzyme was evaluated in the presence of 0.137, 0.273, 0.547, 1.094, 2.188, 4.375, 8.750, 17.5, 35.0 and 70.0 μM concentrations of the test compounds. Inhibition curves were generated and IC50 values were calculated for each tested compound using standard techniques.

[2] = biological target: T1, CYP2D6 (Homo sapiens, UniProt P10635); experiment: CYP-P450 reversible inhibition, 2D6; type: in vitro ADME; settings: probe fluorogenic probe (not named); human liver microsomes or recombinant P450 microsomes; fluorescent probe
T1 construct: host or cells: human liver microsomes or recombinant P450 microsomes
T1 sequence (P10635 whole entry): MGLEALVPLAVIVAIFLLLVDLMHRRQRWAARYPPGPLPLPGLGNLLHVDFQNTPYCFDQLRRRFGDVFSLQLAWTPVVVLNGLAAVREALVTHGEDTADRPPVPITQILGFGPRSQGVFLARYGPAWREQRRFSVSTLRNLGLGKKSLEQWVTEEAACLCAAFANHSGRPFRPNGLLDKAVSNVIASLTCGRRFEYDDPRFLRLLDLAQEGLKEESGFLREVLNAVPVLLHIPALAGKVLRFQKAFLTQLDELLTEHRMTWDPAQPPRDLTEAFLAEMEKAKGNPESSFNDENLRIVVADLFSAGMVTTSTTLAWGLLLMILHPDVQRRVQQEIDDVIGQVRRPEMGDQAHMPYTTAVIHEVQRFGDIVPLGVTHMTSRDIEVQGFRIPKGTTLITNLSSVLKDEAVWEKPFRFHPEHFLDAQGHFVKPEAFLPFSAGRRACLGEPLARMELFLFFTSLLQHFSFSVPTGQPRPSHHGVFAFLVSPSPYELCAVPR
Description: as §1

[3] = Liver microsome stability in 4 species: dog; type: in vitro ADME; settings: substrate 0.5 uM, microsome 0.25 mg/mL
Description: (§2) In a separate experiment as exemplified in Table 3, the stability of the current Example 1 and the comparator Compound #290 in incubations with microsome preparations from 4 different species were also determined (Note 5).
(§3) X. S. Tong, et. al., J. of Chromatography, 2006, 833, 165.

[4] = Rat 7 day oral dose limiting toxicity assessment; type: in vivo; settings: for mortality: 750 mpk dose group, n=5 per group; for NO Effect Level (NOEL): in vivo, po, 7 days; for Dose limiting toxicity assessment, 25 mpk: p.o. 25 mg per kg per day for 7 days; for Dose limiting toxicity assessment, 25 mpk / Dose limiting toxicity assessment, 100 mpk / Dose limiting toxicity assessment, 750 mpk: mono-L-malic acid salts; for Dose limiting toxicity assessment, 100 mpk: p.o. 100 mg per kg per day for 7 days; for Dose limiting toxicity assessment, 750 mpk: p.o. 750 mg per kg per day for 7 days; for physical signs of toxicity: p.o. 100 mpk dose for 7 days
Description: The observations summarized in Table 8 indicate that both Example 1 and Compound #290 have the same NO Effect Level in a Dose Limiting Toxicity assay in the rat (NOEL=100 mpk/day for 7 days for both) (Note 11), and would argue against the use of higher doses of Compound #290 to achieve the same plasma exposure as Example 1 in the clinic.
Example 1 and Compound #290 as their mono-L-malic acid salts were formulated in 0.5% Methocel and dosed p.o. at 25, 100 and 750 mg per k per day (free base equivalent) for 7 days (n=5 animals in each group). During the dosing period observation of any physical signs of toxicity were noted. Upon termination on day 8, a standard battery of blood chemistry and tissue analyses were performed and evaluated for significant effects compared to vehicle controls. […] At the 750 mpk dose level several adverse effects were observed including mortality (⅖ for Example 1 on Day 7 and 8 in the 750 mpk dose group; ⅕ on day 4 for Compound #290 in the 750 mpk dose group).

[5] = biological target: T2, Human Leukocyte Elastase (HLE) (Homo sapiens, UniProt P08246); experiment: HLE time-dependent reactivation (off-rate) assay; type: biochemical; settings: head-to-head with Examples 1 and 3
T2 construct: The PMN lysates were prepared by isolating human neutrophils from whole blood; from tissue; host or cells: human neutrophils (PMN) isolated from whole blood, lysed by sonication in PBS
T2 sequence (P08246 30-267): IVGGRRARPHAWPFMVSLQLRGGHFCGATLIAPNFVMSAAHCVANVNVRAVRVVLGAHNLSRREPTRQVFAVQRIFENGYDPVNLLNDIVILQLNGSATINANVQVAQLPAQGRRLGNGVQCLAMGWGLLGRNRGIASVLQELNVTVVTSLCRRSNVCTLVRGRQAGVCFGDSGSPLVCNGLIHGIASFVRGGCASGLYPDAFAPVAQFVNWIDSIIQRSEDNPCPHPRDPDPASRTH
Description: An important and desirable aspect of these mechanism-based HLE inhibitors is also the extent to which the enzyme remains inactivated or, in other words, the rate at which the modified inhibitor comes off the enzyme after the inactivation event has occurred and which then gives back the active HLE enzyme (see Note 2c and 4). This property was assessed in a time-dependent reactivation assay and the results were calculated as a first-order rate constant expressed as their half-lives in hours (t1/2). […] Under head-to-head conditions (n=2) with Examples 1 and 3, the off-rate for the comparator Compound #290 of U.S. Pat. No. 5,591,737 was determined to be 7.1 hrs, or about 2.5-2.6 times as fast.
Elastase was incubated with 100-fold molar excess of inhibitor in TES buffer (0.045M TES, 0.45M NaCl, pH 7.5, 0.1% BSA) at room temperature for 60 minutes. After the incubation was complete, the samples were loaded onto prepared columns (Micro BioSpin Chromatography Columns-Bio-Gel P-6 Columns Bio-Rad Cat# 732-6221; prepared as directed by the manufacturer). […] At specific time points, the filtrate was monitored for elastase activity by adding the filtrate to 1 mM substrate (MeoSucc-AAPV-pNA; Elastin Products Cat# FH237) in TES buffer (0.045M TES, 0.45M NaCl, pH 7.5) and measuring the absorbance at 410 nm. The absorbance was monitored every 10 seconds for 5 minutes. […]

[6] = Liver microsome stability in 4 species: human; type: in vitro ADME; settings: substrate 0.5 uM, microsome 0.25 mg/mL
Description: as §2, §3

[7] = Liver microsome stability in 4 species: rat; type: in vitro ADME; settings: substrate 0.5 uM, microsome 0.25 mg/mL
Description: as §2, §3

[8] = Liver microsome stability in 4 species: monkey; type: in vitro ADME; settings: substrate 0.5 uM, microsome 0.25 mg/mL
Description: as §2, §3

[9] = biological target: T3, CYP2C9 (Homo sapiens, UniProt P11712); experiment: CYP-P450 reversible inhibition, 2C9; type: in vitro ADME; settings: probe fluorogenic probe (not named); human liver microsomes or recombinant P450 microsomes; fluorescent probe
T3 construct: host or cells: human liver microsomes or recombinant P450 microsomes
T3 sequence (P11712 whole entry): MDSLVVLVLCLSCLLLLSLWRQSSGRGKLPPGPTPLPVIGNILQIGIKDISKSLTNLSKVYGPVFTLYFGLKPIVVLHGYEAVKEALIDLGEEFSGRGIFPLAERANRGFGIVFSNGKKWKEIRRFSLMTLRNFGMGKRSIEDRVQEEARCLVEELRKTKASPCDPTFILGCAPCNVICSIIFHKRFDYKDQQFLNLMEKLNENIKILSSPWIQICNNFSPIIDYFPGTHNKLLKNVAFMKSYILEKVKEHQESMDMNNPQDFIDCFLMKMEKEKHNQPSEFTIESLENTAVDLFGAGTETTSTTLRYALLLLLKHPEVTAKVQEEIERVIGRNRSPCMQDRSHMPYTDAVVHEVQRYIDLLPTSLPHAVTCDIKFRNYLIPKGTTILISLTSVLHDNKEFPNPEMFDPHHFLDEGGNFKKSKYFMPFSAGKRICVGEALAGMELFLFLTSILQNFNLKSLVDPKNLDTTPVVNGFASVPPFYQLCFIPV
Description: as §1

CYP3A4, sequence (P08684 whole entry): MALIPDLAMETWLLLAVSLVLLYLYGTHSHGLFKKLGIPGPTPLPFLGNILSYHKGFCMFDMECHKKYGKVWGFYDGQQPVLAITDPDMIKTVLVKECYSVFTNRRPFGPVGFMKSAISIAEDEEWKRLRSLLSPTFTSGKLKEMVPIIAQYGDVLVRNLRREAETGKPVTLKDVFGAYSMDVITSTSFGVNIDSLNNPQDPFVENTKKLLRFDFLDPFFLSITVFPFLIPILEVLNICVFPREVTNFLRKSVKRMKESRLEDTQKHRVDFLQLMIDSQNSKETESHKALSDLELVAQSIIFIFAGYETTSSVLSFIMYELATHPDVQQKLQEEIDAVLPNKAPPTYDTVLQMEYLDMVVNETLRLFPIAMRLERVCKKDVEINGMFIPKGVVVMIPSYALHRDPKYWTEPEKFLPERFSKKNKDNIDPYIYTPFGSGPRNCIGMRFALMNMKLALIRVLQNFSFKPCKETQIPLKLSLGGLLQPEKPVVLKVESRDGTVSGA

SMILES	IC50 [1]	IC50 [2]	% Left @ 30 min [3]	% Left @ 60 min [3]	mortality [4]	NO Effect Level (NOEL) [4]	Dose limiting toxicity assessment, 25 mpk ([4]; 25 mg/kg)	Dose limiting toxicity assessment, 100 mpk ([4]; 100 mg/kg)	Dose limiting toxicity assessment, 750 mpk [4]	physical signs of toxicity [4]	off-rate relative to Examples 1 and 3 (times as fast) [5]	% Left @ 30 min [6]	% Left @ 60 min [6]	% Left @ 30 min [7]	% Left @ 60 min [7]	% Left @ 30 min [8]	% Left @ 60 min [8]	IC50 [9]	Dose limiting toxicity assessment, 25 mpk ([4]; listed as xample 1, 25 mg/kg)	Dose limiting toxicity assessment, 100 mpk ([4]; listed as xample 1, 100 mg/kg)
CCC[C@@H](NC(=O)N1C(=O)C(CC)(CC)[C@@H]1Oc1ccc(C(=O)N(C)CCN(C)C)cc1)c1ccc(OC)cc1 [Compound #290, reference compound]	> 8 µM	> 8 µM	100%	102%	⅕	100 mpk/day	no adverse effects	no adverse effects	Significant toxicity observed	salivation	2.5-2.6 times	93%	88%	99%	93%	90%	67%	> 8 µM		
CCC[C@@H](NC(=O)N1C(=O)C(CC)(CC)[C@@H]1Oc1ccc(C(=O)N(CC)CCN(C)C)cc1)c1ccc(OC(F)(F)F)cc1 [Example 1, 2-(S)-[4-(((2-(Dimethylamino)ethyl)ethylamino)carbonyl)phenoxy]-3,3-diethyl-N-[1-(R)-(4-(trifluoromethoxy)phenyl)butyl]-4-oxo-1-azetidinecarboxamide]	> 8 µM	> 8 µM	93%	86%	⅖	100 mpk/day	no adverse effects	no adverse effects	Significant toxicity observed	salivation		92%	92%	96%	94%	91%	77%	> 8 µM	No effects	No effects
